Test results as given in patent publication US10870647B2, “Imidazopyridine derivative, method for preparing same, and pharmaceutical composition containing same as active ingredient for preventing or treating cancer” (DAEGU-GYEONGBUK MEDICAL INNOVATION FOUNDATION, priority 2016, dated 2020).

Legend:
Assay in all cases: Kinase selectivity, scanMAX Kinase assay panel (DiscoverX), % control at 1 uM
Type in all cases: binding
[1] = molecular target: T1, scanMAX Kinase assay panel (Homo sapiens, UniProt Q96RR4); details: CAMKK2; 1 uM; read-out: Percent Control (%)
T1 construct: purchased DiscoverX
T1 sequence (Q96RR4 whole entry): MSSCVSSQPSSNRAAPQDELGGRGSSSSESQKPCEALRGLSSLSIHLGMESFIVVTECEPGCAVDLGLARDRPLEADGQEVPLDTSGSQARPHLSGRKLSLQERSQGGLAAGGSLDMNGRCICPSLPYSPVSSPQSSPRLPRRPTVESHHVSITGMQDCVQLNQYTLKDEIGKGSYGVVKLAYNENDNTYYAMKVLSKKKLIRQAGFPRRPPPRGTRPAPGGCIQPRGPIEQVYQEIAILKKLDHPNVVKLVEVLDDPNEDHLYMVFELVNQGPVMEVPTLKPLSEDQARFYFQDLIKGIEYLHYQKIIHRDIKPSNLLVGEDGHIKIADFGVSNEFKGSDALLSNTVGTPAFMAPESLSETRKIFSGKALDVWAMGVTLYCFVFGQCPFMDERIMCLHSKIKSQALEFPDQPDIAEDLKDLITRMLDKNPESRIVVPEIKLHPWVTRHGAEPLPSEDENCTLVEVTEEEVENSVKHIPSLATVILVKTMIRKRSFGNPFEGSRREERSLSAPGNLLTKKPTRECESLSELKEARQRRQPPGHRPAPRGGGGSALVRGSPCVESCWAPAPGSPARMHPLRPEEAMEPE
In short: (§1)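 Each kinase was first exposed to the test compound at 1 uM in DMSO. Signal was then normalised to positive and negative controls to give % control. Finally, any enzyme showing <35% control was judged inhibited.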

[2] = molecular target: T2, scanMAX Kinase assay panel (Homo sapiens, UniProt P17612); details: PKAC-alpha; 1 uM; read-out: Percent Control (%)
T2 construct: purchased DiscoverX
In short: as §1

[3] = molecular target: T3, scanMAX Kinase assay panel (Homo sapiens, UniProt P52333); details: JAK3 (JH1domain-catalytic); 1 uM; read-out: Percent Control (%)
T3 construct: purchased DiscoverX
T3 sequence (P52333 1-1124): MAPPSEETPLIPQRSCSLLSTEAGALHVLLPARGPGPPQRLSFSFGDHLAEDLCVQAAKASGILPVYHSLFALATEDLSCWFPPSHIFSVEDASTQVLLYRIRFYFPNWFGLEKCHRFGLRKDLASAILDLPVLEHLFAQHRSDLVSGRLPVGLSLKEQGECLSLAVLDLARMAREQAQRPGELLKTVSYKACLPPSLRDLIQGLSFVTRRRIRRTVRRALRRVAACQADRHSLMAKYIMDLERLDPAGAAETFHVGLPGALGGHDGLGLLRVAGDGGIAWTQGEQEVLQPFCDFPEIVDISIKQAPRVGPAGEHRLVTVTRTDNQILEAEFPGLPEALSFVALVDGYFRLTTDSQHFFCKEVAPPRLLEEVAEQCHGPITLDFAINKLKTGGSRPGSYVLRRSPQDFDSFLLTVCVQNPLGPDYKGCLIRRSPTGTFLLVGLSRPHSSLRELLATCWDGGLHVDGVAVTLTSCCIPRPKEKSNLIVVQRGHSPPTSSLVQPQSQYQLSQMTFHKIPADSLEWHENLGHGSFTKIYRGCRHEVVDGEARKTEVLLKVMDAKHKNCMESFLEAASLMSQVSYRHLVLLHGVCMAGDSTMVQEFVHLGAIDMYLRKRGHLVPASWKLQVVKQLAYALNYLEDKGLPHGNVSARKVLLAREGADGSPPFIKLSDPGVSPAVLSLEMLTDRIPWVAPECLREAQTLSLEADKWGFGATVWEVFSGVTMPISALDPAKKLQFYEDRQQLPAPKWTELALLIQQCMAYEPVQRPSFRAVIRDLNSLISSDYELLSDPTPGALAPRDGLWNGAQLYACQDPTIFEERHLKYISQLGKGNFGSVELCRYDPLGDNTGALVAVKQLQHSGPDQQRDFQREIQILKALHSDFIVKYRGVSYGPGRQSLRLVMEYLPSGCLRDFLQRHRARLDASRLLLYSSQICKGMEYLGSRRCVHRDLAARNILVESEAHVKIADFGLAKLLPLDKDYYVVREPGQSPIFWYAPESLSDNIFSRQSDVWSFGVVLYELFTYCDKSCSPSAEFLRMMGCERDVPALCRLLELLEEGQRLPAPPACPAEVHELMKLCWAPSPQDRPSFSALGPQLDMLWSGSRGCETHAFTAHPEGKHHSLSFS
In short: as §1

[4] = molecular target: T4, scanMAX Kinase assay panel (Homo sapiens, UniProt P37173); details: TGFBR2; 1 uM; read-out: Percent Control (%)
T4 construct: purchased DiscoverX
T4 sequence (P37173 23-567): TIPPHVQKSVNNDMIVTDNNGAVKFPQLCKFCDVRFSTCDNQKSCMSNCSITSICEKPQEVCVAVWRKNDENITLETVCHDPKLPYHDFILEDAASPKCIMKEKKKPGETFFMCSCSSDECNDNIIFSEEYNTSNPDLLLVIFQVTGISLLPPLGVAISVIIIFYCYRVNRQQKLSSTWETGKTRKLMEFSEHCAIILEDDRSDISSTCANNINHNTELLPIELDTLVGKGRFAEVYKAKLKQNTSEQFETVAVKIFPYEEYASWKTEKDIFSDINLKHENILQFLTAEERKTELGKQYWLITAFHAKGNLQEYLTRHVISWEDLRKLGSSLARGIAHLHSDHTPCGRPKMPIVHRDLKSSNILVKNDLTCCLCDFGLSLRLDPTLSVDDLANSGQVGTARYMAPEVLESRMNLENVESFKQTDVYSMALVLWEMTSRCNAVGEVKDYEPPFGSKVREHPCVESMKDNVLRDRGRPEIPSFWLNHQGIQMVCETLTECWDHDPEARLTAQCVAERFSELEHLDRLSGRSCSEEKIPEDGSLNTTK
In short: as §1

[5] = molecular target: T5, scanMAX Kinase assay panel (Homo sapiens, UniProt Q13188); details: MST2; 1 uM; read-out: Percent Control (%)
T5 construct: purchased DiscoverX
T5 sequence (Q13188 1-491): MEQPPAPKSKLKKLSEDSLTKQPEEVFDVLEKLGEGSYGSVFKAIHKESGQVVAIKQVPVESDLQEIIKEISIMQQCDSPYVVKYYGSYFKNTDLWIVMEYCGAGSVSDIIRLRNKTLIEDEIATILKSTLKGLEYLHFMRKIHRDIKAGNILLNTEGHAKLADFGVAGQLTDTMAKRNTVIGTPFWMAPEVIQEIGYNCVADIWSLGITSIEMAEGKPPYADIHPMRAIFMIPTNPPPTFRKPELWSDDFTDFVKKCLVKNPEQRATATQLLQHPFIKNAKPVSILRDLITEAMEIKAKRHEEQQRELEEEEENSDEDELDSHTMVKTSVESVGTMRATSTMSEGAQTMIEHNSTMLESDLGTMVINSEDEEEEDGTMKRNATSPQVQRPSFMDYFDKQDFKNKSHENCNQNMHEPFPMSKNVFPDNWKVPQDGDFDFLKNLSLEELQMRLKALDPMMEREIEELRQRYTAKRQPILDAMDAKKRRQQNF
In short: as §1

[6] = molecular target: T6, scanMAX Kinase assay panel (Homo sapiens, UniProt P42681); details: TXK; 1 uM; read-out: Percent Control (%)
T6 construct: purchased DiscoverX
T6 sequence (P42681 1-527): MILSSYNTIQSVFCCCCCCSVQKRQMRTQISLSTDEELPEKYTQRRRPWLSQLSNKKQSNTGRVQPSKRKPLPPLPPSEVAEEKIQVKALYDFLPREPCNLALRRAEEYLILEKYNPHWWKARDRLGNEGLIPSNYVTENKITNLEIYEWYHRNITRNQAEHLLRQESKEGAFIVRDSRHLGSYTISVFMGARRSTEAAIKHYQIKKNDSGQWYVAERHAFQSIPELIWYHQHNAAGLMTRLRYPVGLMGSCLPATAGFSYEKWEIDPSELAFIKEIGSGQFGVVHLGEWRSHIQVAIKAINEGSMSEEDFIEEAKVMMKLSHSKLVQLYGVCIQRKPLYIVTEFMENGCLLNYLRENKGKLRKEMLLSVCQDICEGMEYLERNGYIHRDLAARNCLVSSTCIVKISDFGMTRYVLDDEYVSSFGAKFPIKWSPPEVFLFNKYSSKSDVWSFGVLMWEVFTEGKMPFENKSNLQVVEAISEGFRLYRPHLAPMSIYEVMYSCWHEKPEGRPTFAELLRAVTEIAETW
In short: as §1

SMILES | remaining binding at 1 µM [1] [%] | remaining binding at 1 µM [2] [%] | remaining binding at 1 µM [3] [%] | remaining binding at 1 µM [4] [%] | remaining binding at 1 µM [5] [%] | remaining binding at 1 µM [6] [%]
Cc1ccc(NC(=O)C2(C(=O)Nc3ccc(F)cc3)CC2)cc1C#Cc1cnc2c(Nc3cnn(C(C)C)c3)cccn12 [Example 78] | 100 | 100 | 100 | 100 | 85 | 91
Cc1cn(-c2cc(NC(=O)c3ccc(C)c(C#Cc4cnc5c(Nc6cnn(C)c6)cccn45)c3)cc(C(F)(F)F)c2)cn1 [Example 12, 4-methyl-N-(3-(4-methyl-1H-imidazol-1-yl)-5-(trifluoromethyl)phenyl)-3-((8-((1-methyl-1H-pyrazol-4-yl)amino)imidazo[1,2-a]pyridin-3-yl)ethynyl)benzamide] | 77 | 93 | 19 | 94 | 100 | 3
Cc1ccc(C(=O)Nc2ccc(CN3CCN(C)CC3)c(C(F)(F)F)c2)cc1C#Cc1cnc2c(Nc3cnn(C)c3)cccn12 [Example 1, 4-methyl-3-((8-((1-methyl-1H-pyrazol-4-yl)amino)imidazo[1,2-a]pyridin-3-yl)ethynyl)-N-(4-((4-methylpiperazin-1-yl)methyl)-3-(trifluoromethyl)phenyl)benzamide] | 32 | 35 | 1 | 24 | 5 | 1
